Test results as given in US9540343B2 (Gilead Sciences, Inc., priority 2011, dated 2017).

Experiments:
HIV-IIIb = test: Test A: Antiviral assay in MT4 cells; assay type: cell-based, HIV-1; settings: Human immunodeficiency virus 1, IIIB, MT4, 120 h, read-out: % inhibition at 2 μM, percent inhibition of virus-induced cell killing, from dose response curve at 2 uM drug; MT-4 cells infected with HIV-IIIb, 5 days, CellTiter-Glo
in vitro = settings: human, uninfected MT-4 cells, CC50 (nM), same protocol as Test A, CellTiter-Glo
Method in brief: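 Cytoprotection read-out: CellTiter-Glo chemiluminescence after 5 days at 37 °C of HIV-IIIb-infected MT-4 cells (m.o.i. 0.003) with compound in 10-point 3-fold dilutions, quadruplicate, 10% FBS. Cytotoxicity (CC50) measured identically without virus.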

| Structure (SMILES) | inhibition at 2 µM (HIV-IIIb) [%] | CC50 at 5 days (in vitro) [nM] |
| --- | --- | --- |
| NC(=O)c1cccc(-c2cccnc2[C@H](Cc2cc(F)cc(F)c2)NC(=O)Cc2c[nH]c3cc(F)ccc23)c1 [Example 86, (S)-3-(2-(2-(3,5-difluorophenyl)-1-(2-(6-fluoro-1H-indol-3-yl)acetamido)ethyl)pyridin-3-yl)benzamide] | 97 | 21400 |
| NC(=O)c1cc(-c2cccnc2[C@H](Cc2cc(F)cc(F)c2)NC(=O)Cn2nc(C(F)F)c3c2C2CC(C3)C2)ccc1F [Example 87, (S)-5-(2-(2-(3,5-difluorophenyl)-1-(2-(4,5,6,7-tetrahydro-3-difluoromethyl-5,7-(methano)indazol-1-yl)acetamido)ethyl)pyridin-3-yl)-2-fluorobenzamide] | 101 | 21600 |
| NC(=O)c1cc(-c2cccnc2[C@H](Cc2cc(F)cc(F)c2)NC(=O)Cn2cc(C(F)(F)F)nc2C2CC2)ccc1F [Example 88E, (S)-5-(2-(1-(2-(2-cyclopropyl-4-(trifluoromethyl)-1H-imidazol-1-yl)acetamido)-2-(3,5-difluorophenyl)ethyl)pyridin-3-yl)-2-fluorobenzamide] | 44 | > 53200 |
| Cc1cc(-c2cccnc2[C@H](Cc2cc(F)cc(F)c2)NC(=O)Cn2nc(C(F)(F)F)c3c2CCCC3)cnc1F [Example 89, (S)—N-(2-(3,5-difluorophenyl)-1-(6′-fluoro-5′-methyl-3,3′-bipyridin-2-yl)ethyl)-2-(3-(trifluoromethyl)-4,5,6,7-tetrahydro-1H-indazol-1-yl)acetamide] | 73 | 10700 |
| CCOC(=O)c1nn(CC(=O)N[C@@H](Cc2cc(F)cc(F)c2)c2ncccc2-c2ccc(F)c(C(N)=O)c2)c2c1C1CCC2C1 (stereo partly drawn) [Example 90F, (S)-5-(2-(2-(3,5-difluorophenyl)-1-(2-(4,5,6,7-tetrahydro-3-carboethoxy-4,7-(methano)indazol-1-yl)acetamido)ethyl)pyridin-3-yl)-2-fluorobenzamide] | 13 | 34600 |
| NC(=O)c1cc(-c2cccnc2[C@H](Cc2cc(F)cc(F)c2)NC(=O)Cn2cc(C(F)(F)F)nc2COCc2ccccc2)ccc1F [Example 91B, (S)-5-(2-(1-(2-(2-(benzyloxymethyl)-4-(trifluoromethyl)-1H-imidazol-1-yl)acetamido)-2-(3,5-difluorophenyl)ethyl)pyridin-3-yl)-2-fluorobenzamide] | 17 | 22000 |
| O=C(Cc1c[nH]c2ccc(F)cc12)N[C@@H](Cc1cc(F)cc(F)c1)c1ncccc1-c1cccc(OCc2ccccc2)c1 [Example 92, (S)—N-(1-(3-(3-(benzyloxy)phenyl)pyridin-2-yl)-2-(3,5-difluorophenyl)ethyl)-2-(5-fluoro-1H-indol-3-yl)acetamide] | 0 | 10300 |
| Cc1noc(C)c1-c1cccnc1[C@H](Cc1cc(F)cc(F)c1)NC(=O)Cc1c[nH]c2ccc(F)cc12 [Example 94, N-((1S)-2-(3,5-difluorophenyl)-1-(3-(3,5-dimethylisoxazol-4-yl)pyridin-2-yl)ethyl)-2-(5-fluoro-1H-indol-3-yl)acetamide] | 3 | 42000 |
| N#Cc1cccc(-c2cccnc2[C@H](Cc2cc(F)cc(F)c2)NC(=O)Cn2ccc3ccccc32)c1 [Example 95C, (S)—N-(1-(3-(3-cyanophenyl)pyridin-2-yl)-2-(3,5-difluorophenyl)ethyl)-2-(1H-indol-1-yl)acetamide] | 14 | 14600 |
| NC(=O)c1cc(-c2cccnc2[C@H](Cc2cc(F)cc(F)c2)NC(=O)Cn2nc(C=O)c3c2C2CC(C3)C2)ccc1F [Example 96, (S)-5-(2-(2-(3,5-difluorophenyl)-1-(2-(4,5,6,7-tetrahydro-3-formyl-5,7-(methano)indazol-1-yl)acetamido)ethyl)pyridin-3-yl)-2-fluorobenzamide] | 104 | 9620 |
| O=C(Cn1nc(C(F)F)c2c1C(F)(F)C1CC21)N[C@@H](Cc1cc(F)cc(F)c1)c1ncccc1-c1ccc2cccnc2c1 (stereo partly drawn) [Example 97, (S)—N-(1-(3-(quinoline-7-yl)-pyridin-2-yl)-2-(3,5-difluorophenyl)ethyl)-2-(3-(difluoromethyl)-5,6-dihydro-4,5-(methano)-6,6-difluoro-cyclopenta[c]pyrazol-1(4H)-yl)acetamide] | 27 | 33900 |
| O=C(Cn1nc(C(F)F)c2c1C(F)(F)C1CC21)N[C@@H](Cc1cc(F)cc(F)c1)c1ncccc1-c1ccc(S(=O)(=O)NC2CCCCC2)cc1 (stereo partly drawn) [Example 98, (S)—N-(1-(3-(4-(N-cyclohexylsulfamoyl)phenyl)-pyridin-2-yl)-2-(3,5-difluorophenyl)ethyl)-2-(3-(difluoromethyl)-5,6-dihydro-4,5-(methano)-6,6-difluoro-cyclopenta[c]pyrazol-1(4H)-yl)acetamide] | 13 | 18000 |
| Cc1nnc(-c2cccc(-c3cccnc3[C@H](Cc3cc(F)cc(F)c3)NC(=O)Cc3c[nH]c4ccc(F)cc34)c2)o1 [Example 99, (S)—N-(2-(3,5-difluorophenyl)-1-(3-(3-(5-methyl-1,3,4-oxadiazol-2-yl)phenyl)pyridin-2-yl)ethyl)-2-(5-fluoro-1H-indol-3-yl)acetamide] | 0 | > 53200 |
| CC(C)Oc1ccc(-c2cccnc2[C@H](Cc2cc(F)cc(F)c2)NC(=O)Cn2nc(C(F)(F)F)c3c2CCCC3)cc1 [Example 100, (S)—N-(2-(3,5-difluorophenyl)-1-(3-(4-isopropoxyphenyl)pyridin-2-yl)ethyl)-2-(3-(trifluoromethyl)-4,5,6,7-tetrahydro-1H-indazol-1-yl)acetamide] | 56 | 7830 |
| O=C(Cc1c[nH]c2ccc(F)cc12)N[C@@H](Cc1cc(F)cc(F)c1)c1ncccc1-c1ccc(N2CCCC2)nc1 [Example 101, (S)—N-(2-(3,5-difluorophenyl)-1-(6′-(pyrrolidin-1-yl)-3,3′-bipyridin-2-yl)ethyl)-2-(5-fluoro-1H-indol-3-yl)acetamide] | 29 | 12600 |
| CC(C)Cc1ccc(-c2cccnc2[C@H](Cc2cc(F)cc(F)c2)NC(=O)Cc2c[nH]c3ccc(F)cc23)cc1 [Example 103, (S)—N-(2-(3,5-difluorophenyl)-1-(3-(4-isobutylphenyl)pyridin-2-yl)ethyl)-2-(5-fluoro-1H-indol-3-yl)acetamide] | 0 | 5170 |
| O=C(Cn1nc(C(F)F)c2c1C(F)(F)C1CC21)N[C@@H](Cc1cc(F)cc(F)c1)c1ncccc1-c1ccc2ccncc2c1 (stereo partly drawn) [Example 104, (S)—N-(1-(3-(isoquinolin-7-yl)-pyridin-2-yl)-2-(3,5-difluorophenyl)ethyl)-2-(3-(difluoromethyl)-5,6-dihydro-4,5-(methano)-6,6-difluoro-cyclopenta[c]pyrazol-1(4H)-yl)acetamide] | 32 | 15700 |
| O=C(Cn1nc(C(F)(F)F)c2c1CCCC2)N[C@@H](Cc1cc(F)cc(F)c1)c1ncccc1-c1ccc(S(=O)(=O)N2CCOCC2)cc1 [Example 105, (S)—N-(2-(3,5-difluorophenyl)-1-(3-(4-(morpholinosulfonyl)phenyl)pyridin-2-yl)ethyl)-2-(3-(trifluoromethyl)-4,5,6,7-tetrahydro-1H-indazol-1-yl)acetamide] | 99 | 9080 |
| NC(=O)c1cc(-c2cccnc2[C@H](Cc2cc(F)cc(F)c2)NC(=O)Cn2cc(C(F)(F)F)nc2C2CCCC2)ccc1F [Example 107E, (S)-5-(2-(1-(2-(2-cyclopentyl-4-(trifluoromethyl)-1H-imidazol-1-yl)acetamido)-2-(3,5-difluorophenyl)ethyl)pyridin-3-yl)-2-fluorobenzamide] | 30 | 42800 |
| NC(=O)c1cccc(-c2cccnc2[C@H](Cc2cc(F)cc(F)c2)NC(=O)Cn2ncc3ccccc32)c1 [Example 108, (S)-3-(2-(1-(2-(1H-indazol-1-yl)acetamido)-2-(3,5-difluorophenyl)ethyl)pyridin-3-yl)benzamide] | 13 | > 53000 |
| Cc1ccccc1-c1cccnc1[C@H](Cc1cc(F)cc(F)c1)NC(=O)Cc1c[nH]c2ccc(F)cc12 [Example 109, (S)—N-(2-(3,5-difluorophenyl)-1-(3-o-tolylpyridin-2-yl)ethyl)-2-(5-fluoro-1H-indol-3-yl)acetamide] | 50 | 9080 |
| O=C(Cc1c[nH]c2ccc(F)cc12)N[C@@H](Cc1cc(F)cc(F)c1)c1ncccc1-c1cccc(C(F)(F)F)c1 [Example 110, (S)—N-(2-(3,5-difluorophenyl)-1-(3-(3-(trifluoromethyl)phenyl)pyridin-2-yl)ethyl)-2-(5-fluoro-1H-indol-3-yl)acetamide] | 6 | 7610 |
| O=C(Cc1c[nH]c2ccc(F)cc12)N[C@@H](Cc1cc(F)cc(F)c1)c1ncccc1-c1cnc2ccccc2c1 [Example 111, (S)—N-(2-(3,5-difluorophenyl)-1-(3-(quinolin-3-yl)pyridin-2-yl)ethyl)-2-(5-fluoro-1H-indol-3-yl)acetamide] | 41 | 9950 |
| O=C(Cc1c[nH]c2ccc(O)cc12)N[C@@H](Cc1cc(F)cc(F)c1)c1ncccc1-c1ccc(F)cc1 [Example 113, (S)—N-(2-(3,5-difluorophenyl)-1-(3-(4-fluorophenyl)pyridin-2-yl)ethyl)-2-(5-hydroxy-1H-indol-3-yl)acetamide] | 78 | 22300 |
